Numbers after ± are expanded uncertainties.
Key:
[1] = xn = mol fraction of the nth substance listed; details: 101 kPa, Liquid, Pycnometric method
[2] = 101 kPa, Liquid, Pycnometric method

c1ccccc1 [benzene] + CCC(C)=O
[1], x2 = 0
Details | mass density [kg/m3]
303.15 K | 868.1 ± 0.6
313.15 K | 857.4 ± 0.6
323.15 K | 846.6 ± 0.6

CCCCCC [hexane] + CCC(C)=O
[1], x2 = 0
Details | mass density [kg/m3]
303.15 K | 650.9 ± 2.4
313.15 K | 641.7 ± 2.4
323.15 K | 630.9 ± 2.3

c1ccccc1 [benzene]
[2]
Details | mass density [kg/m3]
303.15 K | 868.1 ± 0.6
313.15 K | 857.4 ± 0.6
323.15 K | 846.6 ± 0.6

C1CCCCC1 [cyclohexane]
[2]
Details | mass density [kg/m3]
303.15 K | 768.9 ± 0.6
313.15 K | 759.2 ± 0.6
323.15 K | 748.7 ± 0.6

CCC(C)=O [butanone] + CCCCCC
mass density [kg/m3], [1]
Details | x1 = 0.1057 | x1 = 0.2048 | x1 = 0.3035 | x1 = 0.4071 | x1 = 0.5035 | x1 = 0.6029 | x1 = 0.7042 | x1 = 0.8059 | x1 = 0.9033 | x1 = 1
303.15 K | 660 ± 2.2 | 670 ± 2 | 680.6 ± 1.8 | 692.9 ± 1.6 | 706 ± 1.4 | 720.7 ± 1.3 | 736.8 ± 1.1 | 754.9 ± 1 | 774 ± 0.9 | 794.6 ± 0.8
313.15 K | 650.4 ± 2.2 | 659 ± 1.9 | 669.5 ± 1.8 | 682 ± 1.6 | 694.7 ± 1.4 | 709.2 ± 1.3 | 725.3 ± 1.1 | 742.9 ± 1 | 763 ± 0.9 | 784 ± 0.8
323.15 K | 639.6 ± 2.1 | 648 ± 1.9 | 658.5 ± 1.7 | 670.4 ± 1.6 | 683.8 ± 1.4 | 698.2 ± 1.2 | 714.2 ± 1.1 | 732.2 ± 1 | 752.3 ± 0.9 | 773.3 ± 0.8

CCC(C)=O [butanone] + C1CCCCC1
mass density [kg/m3], [1]
Details | x1 = 0.1066 | x1 = 0.2093 | x1 = 0.3084 | x1 = 0.4042 | x1 = 0.5064 | x1 = 0.6055 | x1 = 0.7007 | x1 = 0.8015 | x1 = 0.907 | x1 = 1
303.15 K | 768 ± 0.6 | 768.3 ± 0.6 | 769.5 ± 0.6 | 771.3 ± 0.6 | 773.6 ± 0.7 | 776.2 ± 0.7 | 779.8 ± 0.7 | 784 ± 0.7 | 789.6 ± 0.8 | 794.6 ± 0.8
313.15 K | 758.3 ± 0.6 | 757.4 ± 0.6 | 758.2 ± 0.6 | 759.9 ± 0.6 | 762.4 ± 0.7 | 765.1 ± 0.7 | 769.2 ± 0.7 | 772.7 ± 0.7 | 777.8 ± 0.8 | 784 ± 0.8
323.15 K | 747.4 ± 0.6 | 746.5 ± 0.6 | 747.3 ± 0.6 | 749.2 ± 0.6 | 751.3 ± 0.7 | 754.4 ± 0.7 | 757.8 ± 0.7 | 761.7 ± 0.7 | 767.2 ± 0.8 | 773.3 ± 0.8

CCC(C)=O [butanone] + c1ccccc1
mass density [kg/m3], [1]
Details | x1 = 0.101 | x1 = 0.1999 | x1 = 0.2988 | x1 = 0.3969 | x1 = 0.4996 | x1 = 0.5988 | x1 = 0.6993 | x1 = 0.7931 | x1 = 0.8961 | x1 = 1
303.15 K | 861.2 ± 0.6 | 854.2 ± 0.6 | 847.1 ± 0.6 | 839.9 ± 0.7 | 832.7 ± 0.7 | 825.2 ± 0.7 | 817.5 ± 0.7 | 809.9 ± 0.8 | 802.2 ± 0.8 | 794.6 ± 0.8
313.15 K | 850.6 ± 0.6 | 843.5 ± 0.6 | 836.6 ± 0.7 | 829.3 ± 0.7 | 822.1 ± 0.7 | 814.6 ± 0.7 | 806.9 ± 0.7 | 799.4 ± 0.8 | 791.7 ± 0.8 | 784 ± 0.8
323.15 K | 839.9 ± 0.6 | 832.9 ± 0.6 | 825.9 ± 0.7 | 818.7 ± 0.7 | 811.5 ± 0.7 | 803.9 ± 0.7 | 796.4 ± 0.7 | 788.9 ± 0.8 | 781.1 ± 0.8 | 773.3 ± 0.8

C1CCCCC1 [cyclohexane] + CCC(C)=O
[1], x2 = 0
Details | mass density [kg/m3]
303.15 K | 768.9 ± 0.6
313.15 K | 759.2 ± 0.6
323.15 K | 748.7 ± 0.6

CCC(C)=O [butanone]
[2]
Details | mass density [kg/m3]
303.15 K | 794.6 ± 0.8
313.15 K | 784 ± 0.8
323.15 K | 773.3 ± 0.8

CCCCCC [hexane]
[2]
Details | mass density [kg/m3]
303.15 K | 650.9 ± 2.4
313.15 K | 641.7 ± 2.4
323.15 K | 630.9 ± 2.3

Source: the NIST ThermoML archive (doi:10.1021/je800883b)
